The text below walks through data of ChEMBL document CHEMBL1201862, “PubChem BioAssay data set” (2004).

Active and inactive are the calls of the source.

The nature of experiment [1]: inhibition of ARNT PAS-B/TACC3 complex formation – biochemical, AlphaScreen, cherry-picked samples, confirmation (AID 651703).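 Note: His-tagged ARNT PAS-B domain paired with GST-TACC3 E629A dimer coactivator fragment; potency of inhibitors that break up the complex and lower AlphaScreen signal.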 Type of experiment: functional, Homo sapiens.
The target of experiment [2] is T1, Melanocortin receptor 4 (Homo sapiens, UniProt P32245). The experiment is described as follows: inhibitors of MC4R cAMP signaling – cell-based, TR-FRET, biased antagonists, dose response (AID 602298).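 Note: antagonist potency against agonist-stimulated cAMP production.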 It counts as functional.
The nature of experiment [3]: cAMP pathway inhibition in counterscreen cell line – TR-FRET cAMP detection, counter-screen for MC4R biased antagonist project, dose response (AID 602305).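 Note: U2OS cells stimulated with forskolin near its EC80 as the cAMP inducer; potency is for inhibition of forskolin-stimulated cAMP signaling.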 Type of experiment: functional, cell-based.
Experiment [4] addresses Testis-specific serine/threonine-protein kinase 2 (Homo sapiens, UniProt Q96PF2). Type of experiment: functional.
In experiment [5] the target is T2, Apoptotic protease-activating factor 1 (Homo sapiens, UniProt O14727).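 Note: caspase-3 cleavage of fluorogenic Rh110 DEVD substrate downstream of apoptosome activation.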
T2 sequence (O14727 whole entry): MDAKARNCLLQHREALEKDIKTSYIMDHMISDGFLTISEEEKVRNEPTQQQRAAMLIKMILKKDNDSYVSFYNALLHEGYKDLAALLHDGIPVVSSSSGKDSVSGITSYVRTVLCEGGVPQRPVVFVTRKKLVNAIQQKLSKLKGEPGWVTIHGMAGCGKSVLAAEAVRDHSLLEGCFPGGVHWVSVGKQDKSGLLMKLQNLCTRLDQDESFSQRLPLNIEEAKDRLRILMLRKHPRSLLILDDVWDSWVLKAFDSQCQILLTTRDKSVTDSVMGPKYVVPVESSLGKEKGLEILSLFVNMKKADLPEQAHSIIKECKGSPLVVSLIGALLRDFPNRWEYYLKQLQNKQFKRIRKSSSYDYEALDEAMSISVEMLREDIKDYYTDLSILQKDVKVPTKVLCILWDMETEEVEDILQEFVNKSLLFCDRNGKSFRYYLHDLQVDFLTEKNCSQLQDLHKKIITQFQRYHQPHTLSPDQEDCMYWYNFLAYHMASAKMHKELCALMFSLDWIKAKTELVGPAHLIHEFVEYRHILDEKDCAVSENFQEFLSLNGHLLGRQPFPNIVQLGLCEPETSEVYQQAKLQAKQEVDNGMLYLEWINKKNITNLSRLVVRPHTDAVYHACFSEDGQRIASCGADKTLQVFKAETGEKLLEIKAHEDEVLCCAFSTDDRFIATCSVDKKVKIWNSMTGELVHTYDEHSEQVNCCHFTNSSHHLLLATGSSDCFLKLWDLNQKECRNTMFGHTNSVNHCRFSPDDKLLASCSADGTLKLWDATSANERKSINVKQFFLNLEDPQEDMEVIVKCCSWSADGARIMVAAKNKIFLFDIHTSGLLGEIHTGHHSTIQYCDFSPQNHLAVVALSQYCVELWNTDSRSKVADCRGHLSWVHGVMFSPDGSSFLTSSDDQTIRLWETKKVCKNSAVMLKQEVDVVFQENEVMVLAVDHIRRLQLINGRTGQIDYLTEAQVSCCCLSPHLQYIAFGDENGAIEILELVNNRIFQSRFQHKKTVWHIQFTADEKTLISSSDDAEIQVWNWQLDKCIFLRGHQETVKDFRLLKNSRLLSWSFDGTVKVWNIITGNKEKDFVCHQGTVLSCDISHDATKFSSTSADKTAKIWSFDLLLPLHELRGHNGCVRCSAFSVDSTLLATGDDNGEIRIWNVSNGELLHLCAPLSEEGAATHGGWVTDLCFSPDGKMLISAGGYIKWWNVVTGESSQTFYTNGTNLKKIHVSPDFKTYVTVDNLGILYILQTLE
The experiment is described as follows: SAR analysis of small molecule Activators of Apaf-1 in a Fluorescent assay. Type of experiment: functional. The settings on record: read-out: EC50_Mean.

Experiment [6] is described as follows: microbe, parasite or virus in culture. Type of experiment: functional. The following applies: Mycobacterium tuberculosis.
Experiment [7] deals with T1, Melanocortin receptor 4. Type of experiment: functional, cell-based.
In experiment [8] the test system is Streptococcus sp. 'group A'. In words: Streptococcus pyogenes SK(-)GAS viability under kanamycin – luminescence, BacTiterGlo, confirmation, counter-screen for streptokinase expression inhibitor project, dose response (AID 1900). Type of experiment: functional, organism-based. A general note: A counterscreen serves to expose hits that act by an unwanted route or on another target.

The subject of a further experiment is Streptococcus. The experiment is described as follows: GAS UMAA2166 growth inhibition – luminescence, BacTiterGlo, counter-screen for streptokinase expression inhibitor project, dose response (AID 1915).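 Note: potency for reduction of bacterial viability or growth.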 It counts as functional, organism-based.
Experiment [9] addresses 26S proteasome non-ATPase regulatory subunit 14 (Homo sapiens, UniProt O00487). The experiment is described as follows: inhibition of proteasome subunit RPN11 – biochemical, fluorescence polarization, uHTS hits, confirmation (AID 602368). It counts as functional. (In general: Polarisation of emitted light reports the rotation of a fluorescent probe.)
Experiment [10] has as its target 72 kDa type IV collagenase (Homo sapiens, UniProt P08253). The experiment is described as follows: Dose Response validation of uHTS RPN11 inhibitor hits using a MMP-2 Fluorescence assay. Type of experiment: functional.
The target in the next experiment is Prothrombin (Bos taurus, UniProt P00735). In words: thrombin protease inhibitors – biochemical, fluorescence polarization, uHTS hits, dose response (AID 602369). Type of experiment: functional.
Another experiment has as its target Protein Wnt-3a (Mus musculus, UniProt P27467). In words: antagonism of Wnt3a pathway luciferase reporter – Wnt-LIGHT cells, luminescence, selectivity assay for Gli-SUFU antagonist project, dose response (AID 651570).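 Note: Wnt-LIGHT reporter cells stimulated with conditioned medium from Wnt3a-producing cells.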 It counts as functional. The following applies: read-out: IC50_Mean.

One may read the AC50 as the midpoint of the concentration-response curve, whichever way the signal moves. As usually defined, the Ki is a dissociation constant, usually derived from enzyme kinetics or from competition with a known ligand.
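Throughout, for Ki: part of the Navigating the Kinome panel, target entry STK22B.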

T1 sequence (P32245 whole entry): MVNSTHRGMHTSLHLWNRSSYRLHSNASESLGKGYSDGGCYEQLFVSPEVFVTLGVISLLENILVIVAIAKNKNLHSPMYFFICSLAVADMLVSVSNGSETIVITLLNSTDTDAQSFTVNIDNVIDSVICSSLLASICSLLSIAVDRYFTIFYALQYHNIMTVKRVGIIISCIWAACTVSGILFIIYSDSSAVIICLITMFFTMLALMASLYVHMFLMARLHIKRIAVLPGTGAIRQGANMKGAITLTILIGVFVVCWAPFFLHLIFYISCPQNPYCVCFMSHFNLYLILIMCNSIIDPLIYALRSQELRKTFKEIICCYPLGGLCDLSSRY
Sequence of Testis-specific serine/threonine-protein kinase 2 (Q96PF2 whole entry): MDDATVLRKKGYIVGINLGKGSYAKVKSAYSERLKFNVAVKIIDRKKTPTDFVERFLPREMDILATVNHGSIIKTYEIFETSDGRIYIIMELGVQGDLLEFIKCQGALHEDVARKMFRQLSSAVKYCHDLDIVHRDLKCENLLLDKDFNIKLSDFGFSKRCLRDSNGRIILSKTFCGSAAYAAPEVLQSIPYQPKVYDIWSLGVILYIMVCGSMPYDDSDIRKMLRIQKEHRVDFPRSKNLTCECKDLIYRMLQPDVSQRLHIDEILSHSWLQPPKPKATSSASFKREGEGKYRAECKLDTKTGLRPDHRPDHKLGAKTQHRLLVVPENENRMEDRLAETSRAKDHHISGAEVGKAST
Sequence of 26S proteasome non-ATPase regulatory subunit 14 (O00487 whole entry): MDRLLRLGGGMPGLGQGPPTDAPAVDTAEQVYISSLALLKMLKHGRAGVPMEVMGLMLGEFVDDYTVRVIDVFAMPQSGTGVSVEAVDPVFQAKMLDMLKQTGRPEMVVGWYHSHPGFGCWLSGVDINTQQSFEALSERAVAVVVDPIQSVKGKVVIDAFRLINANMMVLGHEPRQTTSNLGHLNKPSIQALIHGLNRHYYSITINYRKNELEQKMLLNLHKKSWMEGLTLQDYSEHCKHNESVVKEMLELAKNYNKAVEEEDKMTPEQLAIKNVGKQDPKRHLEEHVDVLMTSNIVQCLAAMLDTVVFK
Sequence of 72 kDa type IV collagenase (P08253 whole entry): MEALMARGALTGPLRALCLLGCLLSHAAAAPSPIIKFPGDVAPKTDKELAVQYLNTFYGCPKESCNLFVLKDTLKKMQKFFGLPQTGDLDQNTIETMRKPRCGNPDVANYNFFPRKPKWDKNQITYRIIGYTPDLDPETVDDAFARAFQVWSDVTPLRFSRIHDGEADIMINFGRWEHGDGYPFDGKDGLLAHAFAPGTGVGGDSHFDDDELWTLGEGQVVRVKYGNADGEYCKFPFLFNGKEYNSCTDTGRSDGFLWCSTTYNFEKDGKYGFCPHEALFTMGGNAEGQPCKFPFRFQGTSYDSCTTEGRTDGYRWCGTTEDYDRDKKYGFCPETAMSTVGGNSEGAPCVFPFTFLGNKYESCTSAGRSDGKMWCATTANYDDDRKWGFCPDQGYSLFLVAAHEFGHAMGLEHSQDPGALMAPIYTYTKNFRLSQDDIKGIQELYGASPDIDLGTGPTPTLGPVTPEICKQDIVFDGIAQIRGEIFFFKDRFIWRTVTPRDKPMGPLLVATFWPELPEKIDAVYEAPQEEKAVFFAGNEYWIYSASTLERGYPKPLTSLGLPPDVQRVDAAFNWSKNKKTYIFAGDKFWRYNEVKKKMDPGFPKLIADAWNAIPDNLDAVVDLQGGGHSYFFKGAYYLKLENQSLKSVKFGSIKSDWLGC
Sequence of Protein Wnt-3a (P27467 whole entry): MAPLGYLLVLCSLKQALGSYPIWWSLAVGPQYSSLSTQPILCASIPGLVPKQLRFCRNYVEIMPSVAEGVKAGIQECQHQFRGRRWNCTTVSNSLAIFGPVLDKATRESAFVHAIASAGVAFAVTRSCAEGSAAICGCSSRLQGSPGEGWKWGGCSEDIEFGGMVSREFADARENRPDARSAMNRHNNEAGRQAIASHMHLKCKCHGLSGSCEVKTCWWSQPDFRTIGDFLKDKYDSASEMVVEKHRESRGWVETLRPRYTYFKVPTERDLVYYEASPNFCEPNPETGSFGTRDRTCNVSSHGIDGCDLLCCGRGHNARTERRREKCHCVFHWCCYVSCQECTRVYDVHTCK

Take `CC1CCCC(C)N1C(=O)COC(=O)c1ccc([N+](=O)[O-])o1` (stereo not drawn): the AC50 in [1] is 95.7 µM (active).

Take `COc1ccc(/C=N/Nc2cc(C)nc(NS(=O)(=O)c3ccc(C)cc3)n2)cc1`: the IC50 (on Melanocortin receptor 4 [2]; in [3]) was > 64.6 µM (inactive) in each case.

In the case of `CC1CCN(C(=O)CC#N)CC1N(C)c1ncnc2[nH]ccc12` (stereo not drawn), the Ki in experiment [4] is > 1.58 µM (inactive).

Take `O=C1CC2(CC(c3ccccc3Cl)=NO2)C(=O)N1c1ccc2ccccc2c1` (stereo not drawn): the EC50 in experiment [5] is > 100 µM (inactive).

On to `COC(=O)c1c(NC(=O)CC2SC(N)=NC2=O)sc2c1CCC(C(C)(C)C)C2` (stereo not drawn), for which, in experiment [6], the CC50 is > 40 µM (active). The EC50 at Melanocortin receptor 4 [7] was > 89.2 µM (inactive).

In the case of `CC(C)c1ccc(N2C(=O)/C(=C/NNC(=O)c3ccccc3O)C(=O)NC2=S)cc1`, the EC50 is 7.63 µM (active) in [8] and 7.21 µM (active) in the experiment with Streptococcus. For the same compound, the IC50 in [9] is 52.9 µM (active); in [10], 45.2 µM (active); on Prothrombin, 48.4 µM (active).

For `COc1ccc(NS(=O)(=O)c2ccc(N3CCN(CCO)CC3)c([N+](=O)[O-])c2)cc1`, the IC50 at Protein Wnt-3a was 0.83 µM (active).
